19 compounds from US20240067662A1, “KRAS INHIBITORS” (Bristol-Myers Squibb Company, priority 2022, published 2024) can be followed below.

This assay deals with GMPPNP-loaded KRAS G12C (Homo sapiens, UniProt P01116, G12C). Put plainly: KRAS G12C RAF Disruption Assay (HTRF). It counts as biochemical. Particulars: recombinant GMPPNP-loaded KRAS G12C (5 nM), 20 min with compound; GST-RAF1 RBD (9 nM); HTRF signal; read-out: KRASG12C RAF Disruption Assay (IC50). The method, boiled down:
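GMPPNP-loaded KRAS G12C (5 nM) was preincubated with compound for 20 min at room temperature in Tris pH 7.5 buffer with NaCl, MgCl2, DTT and BSA. GST-RAF1 RBD (9 nM) was added for 20 min, then SA-Tb (0.25 nM) for 3 h. IC50 was fitted from the HTRF 520/495 ratio.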
With `C#Cc1cccc2cccc(-c3ncc4c(N(C)C5CCN(C(=O)/C(F)=C/c6nccs6)C5C)nc(OC[C@@]56CCCN5C[C@H](F)C6)nc4c3F)c12` (single isomer, unassigned) [Example 73 cis isomer 2], the IC50 was 1800 nM. The same measure for `C#Cc1c(F)ccc2cc(O)cc(-c3ncc4c(N5CCN(C(=O)/C(F)=C/c6cnccn6)CC5)nc(OC[C@@]56CCCN5C[C@H](F)C6)nc4c3F)c12` [Example 56, (Z)-1-(4-(7-(8-ethynyl-7-fluoro-3-hydroxynaphthalen-1-yl)-8-fluoro-2-(((2R, 7aS)-2-fluorotetrahydro-1H-pyrrolizin-7a(5H)-yl)methoxy)pyrido[4,3-d]pyrimidin-4-yl)piperazin-1-yl)-2-fluoro-3-(pyrazin-2-yl)prop-2-en-1-one]: 6 nM; for `N#CC[C@H]1CN(c2nc(OC[C@@]34CCCN3C[C@H](F)C4)nc3c(F)c(-c4csc5ccccc45)ncc23)CCN1C(=O)/C(F)=C/c1nccs1` [Example 34, 2-((S)-4-(7-(benzo[b]thiophen-3-yl)-8-fluoro-2-(((2R, 7aS)-2-fluorotetrahydro-1H-pyrrolizin-7a(5H)-yl)methoxy)pyrido[4,3-d]pyrimidin-4-yl)-1-((Z)-2-fluoro-3-(thiazol-2-yl)acryloyl)piperazin-2-yl)acetonitrile]: 400 nM. `C#Cc1cccc2cccc(-c3ncc4c(N(C)[C@H]5CN(C(=O)/C(F)=C/c6ccccn6)C[C@H]5F)nc(OC[C@@]56CCCN5C[C@H](F)C6)nc4c3F)c12` [Compound 128, (Z)-1-((3S,4R)-3-((7-(8-ethynylnaphthalen-1-yl)-8-fluoro-2-(((2R, 7aS)-2-fluorotetrahydro-1H-pyrrolizin-7a(5H)-yl)methoxy)pyrido[4,3-d]pyrimidin-4-yl)(methyl)amino)-4-fluoropyrrolidin-1-yl)-2-fluoro-3-(pyridin-2-yl)prop-2-en-1-one]: the IC50 worked out at 30 nM. To `C#Cc1c(F)ccc2cc(O)cc(-c3ncc4c(N5C[C@H]6CC[C@@H](C5)N6C(=O)/C(F)=C/c5cncc(C)n5)nc(OC[C@@]56CCCN5C[C@H](F)C6)nc4c3F)c12` [Example 26, (Z)-1-((1R, 5S)-3-(7-(8-ethynyl-7-fluoro-3-hydroxynaphthalen-1-yl)-8-fluoro-2-(((2R, 7aS)-2-fluorotetrahydro-1H-pyrrolizin-7a(5H)-yl)methoxy)pyrido[4,3-d]pyrimidin-4-yl)-3,8-diazabicyclo[3.2.1]octan-8-yl)-2-fluoro-3-(6-methylpyrazin-2-yl)prop-2-en-1-one] belongs 170 nM; to `N#CC[C@H]1CN(c2nc(OC[C@@]34CCCN3C[C@H](F)C4)nc3c(F)c(-c4ccccc4C4CC4)ncc23)CCN1C(=O)/C(F)=C/c1ccccn1` [Compound 79, 2-((2S)-4-(7-(2-cyclopropylphenyl)-8-fluoro-2-(((2R, 7aS)-2-fluorotetrahydro-1H-pyrrolizin-7a(5H)-yl)methoxy)pyrido[4,3-d]pyrimidin-4-yl)-1-((Z)-2-fluoro-3-(pyridin-2-yl)acryloyl)piperazin-2-yl)acetonitrile], 65 nM. With `C#Cc1cccc2cccc(-c3ncc4c(N5CC[C@@H]6CN(C(=O)/C(F)=C/c7ccccn7)C[C@@H]65)nc(OC[C@@]56CCCN5C[C@H](F)C6)nc4c3F)c12` [Compound 85, (Z)-1-((3aR, 6aR)-1-(7-(8-ethynylnaphthalen-1-yl)-8-fluoro-2-(((2R, 7aS)-2-fluorotetrahydro-1H-pyrrolizin-7a(5H)-yl)methoxy)pyrido[4,3-d]pyrimidin-4-yl)hexahydropyrrolo[3,4-b]pyrrol-5(1H)-yl)-2-fluoro-3-(pyridin-2-yl)prop-2-en-1-one], the IC50 came out at 110 nM. The same measure for `C#Cc1c(F)ccc2cc(O)cc(-c3ncc4c(N5CCN(C(=O)/C(F)=C/c6ccccn6)CC5)nc(OC[C@]56CCC[C@H]5N(C)CCC6)nc4c3F)c12` [Example 59, (Z)-1-(4-(7-(8-ethynyl-7-fluoro-3-hydroxynaphthalen-1-yl)-8-fluoro-2-(((4aS, 7aR)-1-methyloctahydro-4aH-cyclopenta[b]pyridin-4a-yl)methoxy)pyrido[4,3-d]pyrimidin-4-yl)piperazin-1-yl)-2-fluoro-3-(pyridin-2-yl)prop-2-en-1-one]: 2 nM; for `N#Cc1c(N)sc2c(F)ccc(-c3ncc4c(N5CCN(C(=O)/C(F)=C/c6nccs6)CC5)nc(OC[C@@]56CCCN5C[C@H](F)C6)nc4c3F)c12` [Compound 122, 2-amino-7-fluoro-4-(8-fluoro-4-(4-((Z)-2-fluoro-3-(thiazol-2-yl)acryloyl)piperazin-1-yl)-2-(((7aS)-2-fluorotetrahydro-1H-pyrrolizin-7a(5H)-yl)methoxy)pyrido[4,3-d]pyrimidin-7-yl)benzo[b]thiophene-3-carbonitrile]: 6 nM; for `CN1CCC[C@H]1COc1nc(N2CCN(C(=O)/C(F)=C/c3nccs3)[C@@H](CC#N)C2)c2cnc(-c3cc(O)ccc3F)c(F)c2n1` [Example 23, 2-((S)-1-((Z)-2-fluoro-3-(thiazol-2-yl)acryloyl)-4-(8-fluoro-7-(2-fluoro-5-hydroxyphenyl)-2-(((S)-1-methylpyrrolidin-2-yl)methoxy)pyrido[4,3-d]pyrimidin-4-yl)piperazin-2-yl)acetonitrile]: 180 nM. Consider `C#Cc1cccc2cccc(-c3ncc4c(N5CCN(C(=O)/C(F)=C/c6ccccn6)C[C@@H]5C)nc(OC[C@@]56CCCN5C[C@H](F)C6)nc4c3F)c12` [Example 63, (Z)-1-((S)-4-(7-(8-ethynylnaphthalen-1-yl)-8-fluoro-2-(((2R, 7aS)-2-fluorotetrahydro-1H-pyrrolizin-7a(5H)-yl)methoxy)pyrido[4,3-d]pyrimidin-4-yl)-3-methylpiperazin-1-yl)-2-fluoro-3-(pyridin-2-yl)prop-2-en-1-one], for which the IC50 was 180 nM.

As to `CN(c1nc(OC[C@@]23CCCN2C[C@H](F)C3)nc2c(F)c(-c3cccc4cccc(C#N)c34)ncc12)[C@@H]1CCN(C(=O)/C(F)=C/c2ccccn2)C1` [Compound 113, 8-(8-fluoro-4-(((R)-1-((Z)-2-fluoro-3-(pyridin-2-yl)acryloyl)pyrrolidin-3-yl)(methyl)amino)-2-(((2R, 7aS)-2-fluorotetrahydro-1H-pyrrolizin-7a(5H)-yl)methoxy)pyrido[4,3-d]pyrimidin-7-yl)-1-naphthonitrile], the IC50 turned out to be 156 nM.

As for `N#CC[C@H]1CN(c2nc(OC[C@@]34CCCN3C[C@H](F)C4)nc3c(F)c(-c4cc(F)ccc4F)ncc23)CCN1C(=O)/C(F)=C/c1nccs1` [Example 41, 2-((S)-4-(7-(2,5-difluorophenyl)-8-fluoro-2-(((2R, 7aS)-2-fluorotetrahydro-1H-pyrrolizin-7a(5H)-yl)methoxy)pyrido[4,3-d]pyrimidin-4-yl)-1-((Z)-2-fluoro-3-(thiazol-2-yl)acryloyl)piperazin-2-yl)acetonitrile], the IC50 was 760 nM.

For the compound `N#CC[C@H]1CN(c2nc(OC[C@@]34CCCN3C[C@H](F)C4)nc3c(F)c(-c4ccccc4C(F)(F)F)ncc23)CCN1C(=O)/C(F)=C/c1nccs1` [Example 32, 2-((S)-4-(8-fluoro-2-(((2R, 7aS)-2-fluorotetrahydro-1H-pyrrolizin-7a(5H)-yl)methoxy)-7-(2-(trifluoromethyl)phenyl)pyrido[4,3-d]pyrimidin-4-yl)-1-((Z)-2-fluoro-3-(thiazol-2-yl)acryloyl)piperazin-2-yl)acetonitrile], the IC50 was found to be 76 nM. The same measure for `CCc1cccc2cccc(-c3ncc4c(N5CCN(C(=O)/C(F)=C/c6nccs6)[C@@H](CC#N)C5)nc(OC[C@@H]5CCCN5C)nc4c3F)c12` [Example 24, 2-((S)-4-(7-(8-ethylnaphthalen-1-yl)-8-fluoro-2-(((S)-1-methylpyrrolidin-2-yl)methoxy)pyrido[4,3-d]pyrimidin-4-yl)-1-((Z)-2-fluoro-3-(thiazol-2-yl)acryloyl)piperazin-2-yl)acetonitrile]: 110 nM; for `C#Cc1c(F)ccc2cccc(-c3ncc4c(N5CCN(C(=O)/C(F)=C/c6ncccn6)C[C@@H]5C)nc(OC[C@@]56CCCN5C[C@H](F)C6)nc4c3F)c12` [Compound 90, (Z)-1-((S)-4-(7-(8-ethynyl-7-fluoronaphthalen-1-yl)-8-fluoro-2-(((2R, 7aS)-2-fluorotetrahydro-1H-pyrrolizin-7a(5H)-yl)methoxy)pyrido[4,3-d]pyrimidin-4-yl)-3-methylpiperazin-1-yl)-2-fluoro-3-(pyrimidin-2-yl)prop-2-en-1-one]: 110 nM.

In the case of “2-((S)-4-(8-fluoro-2-(((S)-1-methylpyrrolidin-2-yl)methoxy)-7-(naphthalen-1-yl)pyrido[4,3-d]pyrimidin-4-yl)-1-((Z)-2-fluoro-3-(pyridin-2-yl)acryloyl)piperazin-2-yl)acetonitrile [Compound 21B]”, the IC50 stood at 330 nM. As to `C#Cc1cccc2cccc(-c3nc(OC)c4c(N5CCN(C(=O)/C(F)=C/c6nccs6)CC5)nc(OC[C@@]56CCCN5C[C@H](F)C6)nc4c3F)c12` [Compound 110, (Z)-1-(4-(7-(8-ethynylnaphthalen-1-yl)-8-fluoro-2-(((2R, 7aS)-2-fluorotetrahydro-1H-pyrrolizin-7a(5H)-yl)methoxy)-5-methoxypyrido[4,3-d]pyrimidin-4-yl)piperazin-1-yl)-2-fluoro-3-(thiazol-2-yl)prop-2-en-1-one], the IC50 worked out at 180 nM.

For the compound `N#Cc1cccc2[nH]cc(-c3ncc4c(N5CCN(C(=O)/C(F)=C/c6ccccn6)CC5)nc(OC[C@@]56CCCN5C[C@H](F)C6)nc4c3F)c12` [Compound 133, 3-(8-fluoro-4-(4-((Z)-2-fluoro-3-(pyridin-2-yl)acryloyl)piperazin-1-yl)-2-(((2R, 7aS)-2-fluorotetrahydro-1H-pyrrolizin-7a(5H)-yl)methoxy)pyrido[4,3-d]pyrimidin-7-yl)-1H-indole-4-carbonitrile], the IC50 turned out to be 890 nM.
